One assay has as its target T1, A1 receptors (Rattus norvegicus, UniProt P25099).
T1 construct: the brain is quickly removed and washed in cold isotonic solution; from tissue; host or cells: rat brain hemispheres (membrane homogenate)
T1 sequence (P25099 1-326): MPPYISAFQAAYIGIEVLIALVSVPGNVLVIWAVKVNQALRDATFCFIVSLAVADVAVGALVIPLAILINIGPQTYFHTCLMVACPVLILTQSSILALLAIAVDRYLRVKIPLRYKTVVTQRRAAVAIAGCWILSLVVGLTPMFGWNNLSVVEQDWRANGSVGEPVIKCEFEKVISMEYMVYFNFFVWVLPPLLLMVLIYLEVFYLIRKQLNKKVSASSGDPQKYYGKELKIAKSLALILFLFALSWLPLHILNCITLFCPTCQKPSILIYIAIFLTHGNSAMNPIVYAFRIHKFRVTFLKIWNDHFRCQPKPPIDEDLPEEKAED
The assay can be described thus: Binding to adenosine A1 receptors: competitive displacement of [^3 H] PIA, rat brain membranes. The settings on record: [^3 H] PIA 2.5 nM, n=3; for inhibition at 10 µM: 10^-5 M, read-out: % displacement of the labeled ligand, A1, 1E-5M; for inhibition at 0.1 µM / % displacement of the labeled ligand, A1, 1E-7M: 10^-7 M; for inhibition at 0.1 µM: read-out: % displacement of the labeled ligand, A1, 1E-7M; for % displacement of the labeled ligand, A1, 1E-7M: 0.1 µM. The procedure: (§1) The affinity of the products of the Examples for the rat central A1 and A2 adenosinergic receptors is determined by the competitive technique using a radioactive ligand specifically bound either to the A1 receptors ([^3 H] PIA) or to the A2 receptors ([^3 H] NECA).
After the animal has been sacrificed by decapitation, the brain is quickly removed and washed in cold isotonic solution. The two hemispheres are separated and weighed and each of them is introduced into a polyallomer tube containing 25 volumes of cold homogenization buffer. Homogenization is effected using an Ultra-Turrax for 30 seconds (3 times 10 seconds with 10-second intervals, 70% of the maximum speed). The ground material obtained is centrifuged at 1000 g (≈3000 rpm) for 10 minutes at 4° C.
The supernatant is centrifuged again at 48,000 g (≈20,000 rpm) for 20 minutes at 4° C.
When this step is complete, the residue is taken up with 4 volumes of homogenization buffer, resuspended using a Vortex and homogenized with the Ultra-Turrax. Adenosine deaminase is then added at a rate of 1 U/ml, i.e. 1 μl/ml of homogenate, using a 10 μl Hamilton syringe.
After this treatment, the homogenate is shaken for 30 minutes at room temperature and then centrifuged at […] (≈20,000 rpm) for 30 minutes at 4° C.
The residue obtained is resuspended in 10 volumes of homogenization buffer and passed through the Ultra-Turrax for 20 seconds (2 times 10 seconds with a 10-second interval, 70% of the maximum speed).
The homogenate prepared in this way is used for the competitive tests. It is kept at 4° C. if the studies take place the same day, or stored at -20° C. in the form of 10 ml aliquots.
After the homogenate has been thawed at room temperature, it is passed through a Potter homogenizer (6 manual to-and-fro movements, speed 6), diluted to 2/5 in incubation buffer and placed in a water bath thermostated at 4° C., with shaking, until the end of the experiment.
50 μl of [^3 H] PIA at 100 nM, i.e. 2.5 nM in the final reaction medium allowing for the 1/40 dilution, and 50 μl of the product of the Example at the concentrations considered (10^-5 M and 10^-7 M) are introduced into the reaction tubes. The reaction is initiated by the addition of 1 ml of homogenate and 900 μl of incubation buffer. The procedure is identical for all the […] studied.
The tubes are shaken and incubated in a water bath at 20° C. for 30 minutes. When the incubation is complete, the contents of the tubes are filtered on Whatman GF/B paper. Each tube is washed twice with 2 ml of rinsing buffer and then the filters themselves are rinsed with 3 ml of this same buffer.
The filters are then transferred to counting flasks and 10 ml of liquid scintillator (Ready Solv HP/b, Beckman) are added.
After they have been shaken, the flasks are stored in a refrigerator overnight and the radioactivity is then determined in a liquid scintillation counter.
3 tests are performed for each concentration studied. The non-specific binding of the [^3 H] PIA is assessed by measuring the amount of radioactivity retained on the filter in the presence of 10^-5 M phenylisopropyladenosine (PIA). The value of the non-specific binding is systematically subtracted from that of the tests.
(§2) The results are expressed for each product in the form of the percentage displacement (n=3) of the labeled radioligand at concentrations of 10^-5 M and 10^-7 M.

The target in the next assay is T2, A2 receptors (Rattus norvegicus, UniProt P30543).
T2 construct: The two hemispheres are separated and the striatum is removed from each of them (Bruns et al., 1986); from tissue; host or cells: rat striatum (membrane homogenate)
T2 sequence (P30543 whole entry): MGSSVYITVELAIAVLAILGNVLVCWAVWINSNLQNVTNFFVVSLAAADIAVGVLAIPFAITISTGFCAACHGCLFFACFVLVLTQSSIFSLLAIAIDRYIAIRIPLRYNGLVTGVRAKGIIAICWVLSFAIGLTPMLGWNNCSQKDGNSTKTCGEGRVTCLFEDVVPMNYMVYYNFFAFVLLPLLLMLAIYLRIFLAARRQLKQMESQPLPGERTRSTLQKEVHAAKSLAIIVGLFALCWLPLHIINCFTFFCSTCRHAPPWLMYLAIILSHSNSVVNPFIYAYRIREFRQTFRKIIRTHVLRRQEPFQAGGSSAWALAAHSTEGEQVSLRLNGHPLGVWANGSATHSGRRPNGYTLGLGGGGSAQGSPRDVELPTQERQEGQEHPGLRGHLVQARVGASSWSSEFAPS
Description: Binding to adenosine A2 receptors: competitive displacement of [^3 H] NECA, rat striatum membranes. The settings on record: [^3 H] NECA 4 nM, n=3; for inhibition at 10 µM: read-out: % displacement of the labeled ligand, A2, 1E-5M; for inhibition at 0.1 µM / % displacement of the labeled ligand, A2, 1E-7M: 10^-7 M; for inhibition at 0.1 µM: read-out: % displacement of the labeled ligand, A2, 1E-7M; for % displacement of the labeled ligand, A2, 1E-7M: 0.1 µM. How it is done: as §1
After decapitation of the animal, the brain is quickly removed and washed in cold isotonic solution. The two hemispheres are separated and the striatum is removed from each of them (Bruns et al., 1986), weighed and introduced into a polyallomer tube containing 10 volumes of cold homogenization buffer. The tissue is homogenized with an Ultra-Turrax for 30 seconds (3 times 10 seconds with 10-second intervals, 70% of the maximum speed). The ground material is centrifuged at 50,000 g (≈20,500 rpm) for 10 minutes at 4° C.
The residue obtained is resuspended in 10 volumes of homogenization buffer using a Vortex and homogenized with the Ultra-Turrax (5 to 10 seconds, 70% of the maximum speed).
Adenosine deaminase is then added at a rate of 1 U/ml, i.e. 1 μl/ml of homogenate, using a 10 μl Hamilton syringe. The homogenate treated in this way is shaken at room temperature for 30 minutes.
When the incubation is complete, the homogenate is centrifuged at 50,000 g (≈20,500 rpm) for 10 minutes at 4° C.
The residue is taken up with 5 volumes of cold homogenization buffer and passed through the Ultra-Turrax (2 times 10 seconds with a 10-second interval, 70% of the maximum speed) and the homogenate prepared in this way is finally frozen at -70° C.
After the homogenate has been thawed at room temperature, 15 volumes of incubation buffer are added. The homogenate is shaken on a Vortex, passed through a Potter homogenizer (6 to-and-fro movements, speed 6), diluted to 1/10 in incubation buffer and finally placed in a water bath thermostated at 4° C., with shaking, until the end of the experiment.
50 μl of [^3 H] NECA at 160 nM, i.e. 4 nM in the final reaction medium allowing for the 1/40 dilution, and 50 μl of the product of the Example at the concentrations considered (10^-5 M and 10^-7 M) are introduced into the reaction tubes. The reaction is initiated by the addition of 1 ml of homogenate and 900 μl of incubation buffer. The procedure is similar for all the compounds studied.
The tubes are shaken and incubated in a water bath at 25° C. for 60 minutes. When the incubation is complete, the contents of the tubes are filtered on Whatman GF/B paper. Each tube is washed twice with 2 ml of rinsing buffer and then the filters themselves are rinsed with 3 ml of this same buffer before being transferred to counting flasks.
10 ml of liquid scintillator (Ready Solv HP/b, Beckman) are added to all the flasks. These are shaken and stored in a refrigerator overnight. The radioactivity is determined in a liquid scintillation counter.
3 tests are performed for each concentration studied. The non-specific binding of the [^3 H] NECA is determined by measuring the amount of radioactivity retained on the filter in the presence of 5 μM N-ethylcarboxamidoadenosine (NECA). The value of the non-specific binding is systematically subtracted from that of the tests.
as §2

Assay [1] concerns twisting and stretching movements in mice. The assay can be described thus: Phenylbenzoquinone test (analgesic activity). Format: in vivo. The following applies: one hour before phenylbenzoquinone i.p., 5 minutes observation; for ED50: Mus musculus, po, read-out: Phenylbenzoquinone test 50% inhibitory dose; for Phenylbenzoquinone test 50% inhibitory dose: p.o. The procedure: The intraperitoneal injection of phenylbenzoquinone causes twisting and stretching movements in mice. Analgesics prevent or reduce this syndrome, which can be considered as the exteriorization of diffuse abdominal pain.
A 0.02% solution of phenylbenzoquinone in water is administered in a volume of 1 ml/100 g.
The products of the Examples are administered orally one hour before the injection of phenylbenzoquinone.
The stretching and twisting movements are counted for each mouse over an observation period of 5 minutes.

Structures are written as SMILES.

In the case of `OC[C@H]1O[C@@H](n2cnc3c(NCC4CC4(c4ccccc4)c4cc(Cl)cc(Cl)c4)ncnc32)[C@H](O)[C@@H]1O` (mixture of isomers) [Example 52, N^6-(±)-[1-(3,5-Dichlorophenyl)-1-phenylcyclopropan-2-yl]methyladenosine], the inhibition at 10 µM on A1 receptors and on A2 receptors (10^-5 M) was 92% each time. Besides, the inhibition at 0.1 µM on A1 receptors worked out at 18%; on A2 receptors, 28%. In assay [1], the ED50 came to 41 mg/kg.
For the compound `O=C(NC1CC1)[C@H]1O[C@@H](n2cnc3c(NCC4CC4(c4ccccc4)c4ccccc4)ncnc32)[C@H](O)[C@@H]1O` (single isomer, unassigned) [Example 44, β-D-Ribofuranuronamido-N-cyclopropyl-1-deoxy-1-[6-[(-)-[[2,2-diphenylcyclopropyl]methyl]amino]-9H-purin-9-yl]], at A1 receptors, the inhibition at 10 µM is 90% and the “% displacement of the labeled ligand, A1, 1E-7M” value (shortened to “% displacement … A1, 1E-7M”) was found to be 10%. The “% displacement of the labeled ligand, A2, 1E-5M” value at A2 receptors (10^-5 M, 10 µM) is 100%. Besides, at A2 receptors, the “% displacement of the labeled ligand, A2, 1E-7M” value (from here on “% displacement … A2, 1E-7M”) is given as 19%. Besides, the “Phenylbenzoquinone test 50% inhibitory dose” value in assay [1] is “≈ 1 mg/kg”.
For `CC(C)NC(=O)[C@H]1O[C@@H](n2cnc3c(NCC4CC4(c4ccccc4)c4ccccc4)ncnc32)[C@H](O)[C@@H]1O` (mixture of isomers) [Example 47, β-D-Ribofuranuronamido-N-isopropyl-1-deoxy-1-[6-[(±)-[[2,2-diphenylcyclopropyl]methyl]amino]-9H-purin-9-yl]], the results for the inhibition at 10 µM at A1 receptors and at A2 receptors (10^-5 M) were 93% and 84%, respectively. The inhibition at 0.1 µM at A1 receptors was determined as 7%; at A2 receptors it was 17%. The ED50 in assay [1] was determined as 2 mg/kg.
Taken in the same sequence, the figures for `OC[C@H]1O[C@@H](n2cnc3c(NCC4CC4(c4ccccc4)c4ccccc4)ncnc32)[C@H](O)[C@@H]1O` (mixture of isomers) [Example 51, N^6-(±)-[1,1-Diphenylcyclopropan-2-yl]methyladenosine] were 93%, 95%, 18%, 56% and 31 mg/kg.
As for `O=C(NC1CC1)[C@H]1O[C@@H](n2cnc3c(NCC4CC4(c4ccccc4)c4ccccc4)ncnc32)[C@H](O)[C@@H]1O` (single isomer, unassigned) [Example 43, β-D-Ribofuranuronamido-N-cyclopropyl-1-deoxy-1-[6-[(+)-[[2,2-diphenylcyclopropyl]methyl]amino]-9H-purin-9-yl]], on A1 receptors, the inhibition at 10 µM was determined as 97% and the “% displacement … A1, 1E-7M” value is given as 44%. Moreover, the inhibition at 10 µM at A2 receptors (10^-5 M) was determined as 96%. For the same compound, the “% displacement … A2, 1E-7M” value on A2 receptors worked out at 73%. In assay [1], the ED50 was found to be 1.2 mg/kg.
Turning to `CCNC(=O)[C@H]1O[C@@H](n2cnc3c(NCC4CC4(c4ccccc4)c4ccccc4)ncnc32)[C@H](O)[C@@H]1O` (mixture of isomers) [Example 41, β-D-Ribofuranuronamido-N-ethyl-1-deoxy-1-[6-[(±)-[[2,2-diphenylcyclopropyl]methyl]amino]-9H-purin-9-yl]], the inhibition at 10 µM at A1 receptors came to 98%; at A2 receptors (10^-5 M) it was 100%. The values for the inhibition at 0.1 µM on A1 receptors and on A2 receptors were 31% and 68%, respectively. The ED50 in assay [1] was 0.5 mg/kg.
Turning to `CCNC(=O)[C@H]1O[C@@H](n2cnc3c(NCC4CC4(c4ccccc4)c4ccccc4)ncnc32)[C@H](O)[C@@H]1O` (single isomer, unassigned) [Example 48, β-D-Ribofuranuronamido-N-ethyl-1-deoxy-1-[6-[(+)-[[2,2-diphenylcyclopropyl]methyl]amino]-9H-purin-9-yl]], at A1 receptors, the inhibition at 10 µM stood at 99% and the “% displacement … A1, 1E-7M” value is recorded as 54%. Besides, the inhibition at 10 µM on A2 receptors (10^-5 M) is 92%. For the same compound, at A2 receptors, the “% displacement … A2, 1E-7M” value is 71%. The “Phenylbenzoquinone test 50% inhibitory dose” value in assay [1] was 0.3 mg/kg.
In the case of `O=C(NC1CC1)[C@H]1O[C@@H](n2cnc3c(NCC4CC45c4ccccc4-c4ccccc45)ncnc32)[C@H](O)[C@@H]1O` (mixture of isomers) [Example 46, β-D-Ribofuranuronamido-N-cyclopropyl-1-deoxy-1-[6-[(±)-2-[spiro[cyclopropane-1,9'-[9H]-fluorene]methyl]amino]-9H-purin-9-yl]], the inhibition at 10 µM on A2 receptors (10^-5 M) was 92%. The inhibition at 0.1 µM on A2 receptors amounted to 38%. Moreover, the ED50 in assay [1] was found to be 0.6 mg/kg.

These data come from patent US5219839A, “Adenosine derivatives, their methods of preparation and pharmaceutical compositions in which they are present” (Laboratories UPSA, priority 1992, dated 1993).
